Test results from paper PMC11513920, “Building Metabolically Stable and Potent Anti-HIV Thioether-Lipid Analogues of Tenofovir Exalidex: A thorough Pharmacological Analysis” (Journal of Medicinal Chemistry, 2024).
Values joined by “and” are separate entries in the source; they are usually repeats but may differ in a detail not shown here. Equal entries are not always repeated.

Experiments:
[1] = Mouse plasma pharmacokinetics after oral dose; type: in vivo, male C57BL/6 mice; conditions: for bioavailability: oral; for bioavailability / bioavailability at 24 h: p.o. 10 mg/kg vs i.v. 3 mg/kg, read-out: %F (oral bioavailability); for AUC(0-t) at 24 h: read-out: AUC0–24h; for mean TFV concentration in plasma: p.o. 10 mg/kg of prodrug, LLOQ 4.84 ng/mL; for concentration at 0.25 h / mean TFV concentration in plasma: 0.25 h; for k (terminal elimination rate constant): 10 mg/kg
Experimental: To compare the in vivo PK profiles to TXL and our previously reported drug lead 1 (Tables S19 and S26),[39] one group of male C57BL/6 mice were administered a single oral dose (p.o., 10 mg/kg) of 2a, 16g, or 16h (refer to Experimental Methods). Additionally, a separate group of mice were given a single intravenous dose (i.v., 3 mg/kg) of each prodrug to obtain plasma clearance (Cl), volume of distribution (Vd), and oral bioavailability data. Blood was sampled at 8 time points over 8 h (i.v.) or 24 h (p.o.) postdose, and plasma was isolated via centrifugation. Tissues (liver, kidney, and brain) were also harvested and homogenized at 3 time points over 24 h after oral dose. The concentrations of prodrug and TFV metabolite in each of these samples was then quantified using LC–MS/MS methodology.
Healthy male C57BL/6 mice (8–12 weeks old) weighing 20–30 g were procured from Global, India. Three mice were housed in each cage. Temperature and humidity were maintained at 22 ± 3 °C and 30–70%, respectively, and illumination was controlled to provide for 12 h light and 12 h dark cycles. Temperature and humidity were recorded by an autocontrolled data logger system. All animals were provided a laboratory rodent diet (Envigo Research private Ltd., Hyderabad). Reverse osmosis H2O treated with ultraviolet light was provided ad libitum.
Male mice were divided into two groups (n = 18 total, n = 9 per treatment group, n = 3 per time point, sparse sampling). One group was intravenously administered a solution of 2a, 16g, and 16h in 10% PEG-300, 10% Solutol HS-15, and 80% saline at 3 mg/kg with a dosing volume of 5 mL/kg. The second group was administered a solution of 2a, 16g, and 16h in 10% EtOH and 90% olive oil at 10 mg/kg via oral gavage with a dosing volume of 10 mL/kg.
Blood samples (approximately 60 μL) were collected from retro-orbital plexus under light isoflurane anesthesia such that the samples were obtained predose, as well as at eight time points post dose: 0.1, 0.25, 0.5, 1, 2, 4, 6, and 8 (i.v.) and 0.25, 0.5, 1, 2, 4, 8, 12, and 24 h (p.o.). Immediately after blood collection, plasma samples were harvested by centrifugation at 4000 rpm and 4 °C for 10 min and stored at −70 °C until LC–MS/MS analysis. Following blood collection from p.o. group, liver, kidney, and brain samples were collected (n = 3 per treatment group per time point) at 1, 4, and 24 h post dose. After isolation, tissue samples were rinsed three times with ice-cold saline and dried with blotting paper. Next, the tissue samples were homogenized using ice-cold PBS (pH = 7.4), and the resulting homogenates were stored below −70 °C until LC-MS/MS analysis. The total homogenate volume was 3 times the brain weight and 5 times the liver and kidney weight.
Areas under the concentration–time curves (AUC0–8h and AUC0–24h) were calculated via the linear trapezoidal rule[65] using GraphPad Prism v9. Furthermore, terminal elimination rate constants k were determined using linear regression (slope = −k) of the terminal portion of semilog-transformed concentration–time curves (Figures S44, S45, S47, S48, S50, and S51).

[2] = HepaRG cellular metabolic stability; conditions: human, other cell line; for hepatocyte CLint at 20 μM: HepaRG Clint,u, calculated from cellular t1/2; for half-life at 20 μM: HepaRG t1/2, after 3 h loading at 20 μM, 37 °C
Text: (§1) Naturally, due the metabolic complexity of HepaRG cells, we specifically analyzed prodrug cellular uptake and stability, as represented by Cmax and intrinsic clearance (Clint,u) accordingly (Figure 7 and Table 9).
(§2) The HepaRG cell line (HPRGC10, Thermo Fisher Scientific) was used to evaluate the cellular permeability and metabolic stability for select final compounds in vitro. The cells were initially thawed with working media composed of HepaRG Thaw, Plate, & General Purpose Medium Supplement (HPRG670), Williams Medium E (100 mL), and GlutaMax (1 mL), all purchased from Thermo Fisher Scientific. […] After the thawing medium was aspirated from each well, the cells were cultured for an additional 6 days with working media consisting of HepaRG Maintenance/Metabolism Medium Supplement (HPRG720), Williams Medium E (500 mL), and GlutaMax (1 mL), all purchased from Thermo Fisher Scientific. Upon completing the 7-day culture period, HepaRG cells were plated in enough wells to allow for duplicate analysis of prodrugs in two independent cellular uptake or metabolic stability experiments. All studied compounds were formulated with human serum albumin (HSA, 5:1 compound to HSA molar ratio) and subsequently diluted to a 20 μM final concentration with assay medium composed of serum-free INVITROGRO HI Medium and TORPEDO Antibiotic Mix purchased from BioIVT. For cellular uptake determinations, the maintenance/metabolism medium was first aspirated from each well, and then the plated cells were spiked with 1.0 mL of test compound stock solution. Subsequently, the plate was incubated at 37 °C under 5% CO2 environment over the desired time course (seven data points/compound). Blank wells not treated with prodrug were included in assay runs as controls and initial time points (0 min). At each time point, the test compound solution was removed from the appropriate wells, and the plated cells were washed with 1.0 mL of DPBS twice. The HepaRG cells were then extracted with 500 μL of cold ISTD solution (1 μM 7-ethoxy-d5-coumarin in 70/30 MeOH/H2O), and the quenched aliquots were centrifuged at 15,000 g for 10 min at 4 °C. […] After obtaining prodrug Cmax and Tmax values from the cellular uptake assay, HepaRG metabolic stability was then assessed. Following the initial 7-day culture procedure, the maintenance/metabolism medium was aspirated from each well, and the plated cells were spiked with 1.0 mL of test compound stock solution. […] The test compound solution was then removed from each well and replaced with untreated dilution medium (i.e., serum-free INVITROGRO HI Medium and TORPEDO Antibiotic Mix), initializing the stability determination. The HepaRG plate was once more incubated at 37 °C under 5% CO2 atmosphere over the desired time course (nine data points/compound), and sample preparation and analysis were handled in identical fashion to cellular uptake experiments.

HepaRG cellular uptake = conditions: human, HepaRG Cmax, 20 μM, HSA formulation 5:1, recorded after 3 h incubation
Text: as §1, §2

[3] = Human liver microsome stability; conditions: for remaining at 2 h, 3 μM / half-life at 3 μM: human, microsomes; for remaining at 2 h, 3 μM: HLM % remaining, relative percent remaining of prodrug at 120 min; for half-life at 3 μM: HLM t1/2, HLM 1 mg/mL
Experimental: Human liver microsomes (HLMs, 20 mg/mL) and CD-1 mouse liver microsomes (MLMs, 20 mg/mL) were purchased from Xenotech. NADPH was purchased from Sigma-Aldrich and prepared in 10 mM stock solutions of distilled H2O (Invitrogen UltraPure). […] Test compounds and positive controls were initially dissolved in MeOH to make 10 mM stock solutions. Sample solutions were then further diluted in 70/30 MeOH/H2O to 500 μM. Next, the reactions were prepared by mixing human or mouse liver microsomes (55 μL) with potassium phosphate buffer (100 mM, 928 μL) in 1.5 mL Eppendorf tubes. The test compounds (6.6 μL of 500 μM solution) were subsequently added to the suspensions, and the reaction mixtures were incubated at 37 °C for 5 min. Afterward, the liver microsome reactions were initiated with 110 μL of 10 mM NADPH and further incubated at 37 °C for the designated time course of the study. […] Each test compound was run in tandem with positive and negative control experiments for quality assurance. Positive control reactions were conducted at a final volume of 550 μL for a single run of each time point.
For both LM and plasma stability assays, each data point was analyzed in duplicate using in-between blank washes to avoid carry over and to equilibrate the column for the subsequent runs. Averages of these duplicate for individual compounds at each time point were then normalized to the data at 0 min, representing 100% test compound remaining or 0% metabolism. Half-lives (t1/2) were calculated by plotting ln of % test compound remaining versus time and performing linear regression to determine slope.
Metabolic Stability Assays
Liver Microsome Stability
Liver Microsome Stability Assay Setup Example
Quenching Mixture: 100 µL MeOH with ISTD (2 µM d5-7-ethoxycoumarin).
Final Volume After Quenching: 200 µL (100 µL from reaction mixture + 100 µL quencher
solution; ISTD final concentration of 1.0 µM).

[4] = male, C57BL/6, mouse, plasma, po
[5] = male, C57BL/6, mouse, plasma, po, p.o. 10 mg/kg, read-out: mean prodrug concentration in plasma
[6] = male, C57BL/6, mouse, po, plasma, p.o. 10 mg/kg
[7] = male, C57BL/6, mouse, po, plasma, prodrug, p.o. 10 mg/kg
[8] = p.o. 10 mg/kg, 24 h, BLQ = below LLOQ (0.58 ng/mL 2a, 0.62 ng/mL 16g)
[9] = 3 μM compound, NADPH, 37 °C, 120 min course

Row | SMILES | bioavailability ([1]; male, C57BL/6, mouse, plasma) | bioavailability at 24 h [1, 4] | concentration at 0.25 h [1, 5] | concentration at 0.5 h [1, 5] | concentration at 1 h [1, 5] | concentration at 2 h [1, 5] | concentration at 4 h [1, 5] | concentration at 8 h [1, 5] | concentration at 12 h [1, 5] | half-life at 24 h [1, 6] | Cmax at 24 h [1, 7] | Tmax [1, 7] | AUC(0-t) at 24 h [1, 7] | mean TFV concentration in plasma [1] | mean prodrug concentration in plasma [1, 8] | Vd ([1]; plasma, p.o. 10 mg/kg) | k (terminal elimination rate constant) ([1]; plasma, p.o. 10 mg/kg) | hepatocyte CLint at 20 μM [2] | half-life at 20 μM [2] | Cmax at 3 h, 20 μM (HepaRG cellular uptake) | other results
1 | CCCCCCCCCCCCCCCCSCCCOP(=O)(O)CO[C@H](C)Cn1cnc2c(N)ncnc21.N [2a] | 20% | 19.3% | 29.6 ng/mL | 51.8 ng/mL | 73.3 ng/mL | 48 ng/mL | 8.34 ng/mL | 7.1 ng/mL | 7.6 ng/mL | 3.49 h | 73.3 ng/mL | 1 h | 219 ng·h/mL | BLQ | BLQ | 44.4 L/kg | 0.1985 and 0.199 | 14.1 µL/min/1e6 cells | 1.49 ± 0.00667 h | 828 ± 0.2 ng/mL | HLM t1/2 ([3]; HLM 1 mg/mL, 3 μM compound, NADPH, 37 °C, 120 min course): 0.7 h and 0.695 ± 0.0383 h
2 | C[C@H](Cn1cnc2c(N)ncnc21)OCP(=O)(O)OCCCSCCCCCCCCCCCCc1ccc(F)cc1.N [16g] | 20% | 20.9% | 17 ng/mL | 43 ng/mL | 58.6 ng/mL | 55.9 ng/mL | 16 ng/mL | 11.2 ng/mL | 10.5 ng/mL | 4.19 h | 58.6 ng/mL | 1 h | 260 ng·h/mL | BLQ | BLQ | 48.7 L/kg | 0.1654 and 0.165 | 27 µL/min/1e6 cells | 0.783 h | 210 ng/mL | remaining at 2 h, 3 μM [3]: 69%; half-life at 3 μM [3, 9]: > 2 h
3 | C[C@H](Cn1cnc2c(N)ncnc21)OCP(=O)(O)OCCCSCCCCCCCCCCCCC1CCCCC1.N [16h] | 55% | 54.9% | 48.9 ng/mL | 79.1 ng/mL | 140 ng/mL | 195 ng/mL | 59.2 ng/mL | 36.1 ng/mL | 38.2 ng/mL |  | 195 ng/mL |  | 1070 ng·h/mL | BLQ |  | 22.8 L/kg | 0.2258 and 0.226 | 18 to 19 µL/min/1e6 cells | 1.12 to 1.18 h | 1410 ng/mL | concentration at 24 h ([1]; male, C57BL/6, mouse, plasma, po, p.o. 10 mg/kg, 24 h, BLQ = below LLOQ (0.58 ng/mL 2a, 0.62 ng/mL 16g), read-out: mean prodrug concentration in plasma): 0.87 ng/mL; half-life [1, 6]: 3.07 h; Tmax at 24 h [1, 7]: 2 h; remaining at 2 h, 3 μM [3]: 85%; half-life at 3 μM [3, 9]: > 2 h
